Results: US20070128217A1 (priority 2003, published 2007)

How the values were obtained:
[1] = system: recombinant human anti-SARS-CoV antibody 03-018; type: binding; design: Binding of antibody 03-018 to linear peptides of the N protein of SARS-CoV Urbani / Binding of antibody 03-018 to looped/cyclic peptides of the N protein of SARS-CoV Urbani: unit not given here
[2] = system: antibodies in sera from SARS patients (sera 1a, 1b, 2, 6, 37, 62, London, SARS-yellow, SARS-green); type: binding, human; design: Binding of serum 6 to linear peptides of protein X1 of SARS-CoV Urbani / Binding of serum 37 to linear peptides of protein X1 of SARS-CoV Urbani / Binding of serum 6 to looped/cyclic peptide (PEPSCAN-ELISA) / Binding of serum 37 to looped/cyclic peptide (PEPSCAN-ELISA) / Binding of serum 37 to looped/cyclic peptides of protein X1 of SARS-CoV Urbani / Binding of serum 6 to linear peptides of protein X2 / Binding of serum 37 to linear peptides of protein X2 / Binding of serum 37 to looped/cyclic peptides of protein X2 of SARS-CoV Urbani / Binding of serum 6 to linear peptides of protein M of SARS-CoV Urbani / Binding of serum 37 to linear peptides of protein M of SARS-CoV Urbani / Binding of serum 6 to looped/cyclic peptides of protein M of SARS-CoV Urbani / Binding of serum 37 to looped/cyclic peptides of protein M of SARS-CoV Urbani / Binding of serum 6 to linear peptides of protein X3 of SARS-CoV Urbani / Binding of serum 37 to linear peptides of protein X3 of SARS-CoV Urbani / Binding of serum 37 to looped/cyclic peptides of protein X3 of SARS-CoV Urbani / Binding of serum 6 to linear peptides of protein X4 of SARS-CoV Urbani / Binding of serum 37 to linear peptides of protein X4 of SARS-CoV Urbani / Binding of serum 37 to looped/cyclic peptides of protein X4 of SARS-CoV Urbani / Binding of serum 6 to linear peptides of protein X5 of SARS-CoV Urbani / Binding of serum 37 to linear peptides of protein X5 of SARS-CoV Urbani / Binding of serum 37 to looped/cyclic peptides of protein X5 of SARS-CoV Urbani / Binding of serum 6 to linear peptides of protein N of SARS-CoV Urbani / Binding of serum 37 to linear peptides of protein N of SARS-CoV Urbani / Binding of serum 6 to linear peptide (PEPSCAN-ELISA) / Binding of serum 1a to looped/cyclic peptides of protein N of SARS-CoV Urbani / Binding of serum 1b to looped/cyclic peptides of protein N of SARS-CoV Urbani / Binding of serum 2 to looped/cyclic peptides of protein N of SARS-CoV Urbani / Binding of serum 6 to looped/cyclic peptides of protein N of SARS-CoV Urbani / Binding of serum 37 to looped/cyclic peptides of protein N of SARS-CoV Urbani / Binding of serum 62 to looped/cyclic peptides of protein N of SARS-CoV Urbani / Binding of serum London to looped/cyclic peptides of protein N of SARS-CoV Urbani / Binding of serum SARS-green to looped/cyclic peptides of protein N of SARS-CoV Urbani: unit not given here
[3] = system: control sera (pooled serum of ten healthy LUMC hospital workers; commercial negative donor pooled serum from the Dutch bloodbank); type: binding, human; design: Binding of Control serum LUMC to linear peptides / Binding of Control serum Blood-bank to linear peptides / Binding of Control serum LUMC to looped peptides / Binding of Control Serum Blood-Bank to Looped peptides / Binding of Control serum LUMC to linear peptides of the protein M of SARS-CoV Urbani / Binding of Control serum Blood-bank to linear peptides of the protein M of SARS-CoV Urbani / Binding of Control serum LUMC to looped peptides of the protein M of SARS-CoV Urbani / Binding of Control Serum Blood-Bank to Looped peptides of the protein M of SARS-CoV Urbani: unit not given here
[4] = system: rabbit serum obtained by immunizing a rabbit with the SARS-CoV strain Frankfurt 1; type: binding; design: Binding of a rabbit serum to linear peptides / Binding of a rabbit serum to looped peptides / Rabbit serum linear peptides / Rabbit serum looped peptides / Binding of a rabbit serum to linear peptides of protein N of SARS-CoV Urbani (Rabbit serum linear peptides) / Binding of a rabbit serum to looped/cyclic peptides of protein N of SARS-CoV Urbani (Rabbit serum looped peptides): unit not given here

| Sequence | Binding of antibody 03-018 to linear peptides of the N protein of SARS-CoV Urbani [1] | Binding of antibody 03-018 to looped/cyclic peptides of the N protein of SARS-CoV Urbani [1] | Binding of serum 1a to looped/cyclic peptides of protein N of SARS-CoV Urbani [2] | Binding of serum 1b to looped/cyclic peptides of protein N of SARS-CoV Urbani [2] | Binding of serum 2 to looped/cyclic peptides of protein N of SARS-CoV Urbani [2] | Binding of serum 6 to looped/cyclic peptides of protein N of SARS-CoV Urbani [2] | Binding of serum 37 to looped/cyclic peptides of protein N of SARS-CoV Urbani [2] | Binding of serum 62 to looped/cyclic peptides of protein N of SARS-CoV Urbani [2] | Binding of serum London to looped/cyclic peptides of protein N of SARS-CoV Urbani [2] | Binding of serum SARS-green to looped/cyclic peptides of protein N of SARS-CoV Urbani [2] | Binding of serum SARS-yellow to looped/cyclic peptides of protein N of SARS-CoV Urbani [2] | Binding of Control Serum Blood-Bank to Looped peptides [3] | Binding of Control serum Blood-bank to linear peptides [3] | Binding of Control serum LUMC to linear peptides [3] | Binding of Control serum LUMC to looped peptides [3] | Binding of a rabbit serum to linear peptides of protein N of SARS-CoV Urbani (Rabbit serum linear peptides) [4] | Binding of a rabbit serum to looped/cyclic peptides of protein N of SARS-CoV Urbani (Rabbit serum looped peptides) [4] | Binding of serum 1a to linear peptides of protein N of SARS-CoV Urbani [2] | Binding of serum 1b to linear peptides of protein N of SARS-CoV Urbani [2] | Binding of serum 2 to linear peptides of protein N of SARS-CoV Urbani [2] | other results |
| --- | --- | --- | --- | --- | --- | --- | --- | --- | --- | --- | --- | --- | --- | --- | --- | --- | --- | --- | --- | --- | --- |
| DRLNQLESKVSGKGQ | 0.1 | 0.3 | 0.4 | 0.3 | 0.6 | 0.4 | 0.6 | 0.4 | 0.4 | 0.4 | 0.8 | 0.6 | 0.9 | 0.7 | 0.6 | 0.3 | 0.4 |  |  |  | Binding of serum 1a to linear peptide (PEPSCAN-ELISA) [2]: 0.3; Binding of serum 1b to linear peptide (PEPSCAN-ELISA) [2]: 0.1; Binding of serum 2 to linear peptide (PEPSCAN-ELISA) [2]: 0.3; Binding of serum 6 to linear peptide (PEPSCAN-ELISA) [2]: 0.2; Binding of serum 37 to linear peptide (PEPSCAN-ELISA) [2]: 0.8; Binding of serum 62 to linear peptide (PEPSCAN-ELISA) [2]: 0.7; Binding of serum London to linear peptide (PEPSCAN-ELISA) [2]: 0.5; Binding of serum SARS-green to linear peptide (PEPSCAN-ELISA) [2]: 0.5; Binding of serum SARS-yellow to linear peptide (PEPSCAN-ELISA) [2]: 0.7 |
| DSTDNNQNGGRNGAR | 0.2 | 0.3 | 0.4 | 0.3 | 0.5 | 0.3 | 0.7 | 0.4 | 0.5 | 0.8 | 0.5 | 0.6 | 0.8 | 0.7 | 0.7 | 0.1 | 0.5 | 0.2 | 0.1 | 0.2 | Binding of serum 6 to linear peptides of protein N of SARS-CoV Urbani [2]: 0.2; Binding of serum 37 to linear peptides of protein N of SARS-CoV Urbani [2]: 1.0; Binding of serum 62 to linear peptides of protein N of SARS-CoV Urbani [2]: 0.8; Binding of serum London to linear peptides of protein N of SARS-CoV Urbani [2]: 0.5; Binding of serum SARS-green to linear peptides of protein N of SARS-CoV Urbani [2]: 0.5; Binding of serum SARS-yellow to linear peptides of protein N of SARS-CoV Urbani [2]: 0.5 |
| DYKHWPQIAQFAPSA | 0.1 | 0.2 | 0.4 | 0.3 | 0.4 | 0.2 | 0.6 | 0.6 | 0.5 | 0.2 | 0.7 |  |  |  |  | 0.1 | 0.5 | 0.3 | 0.2 | 0.2 | Binding of serum 6 to linear peptides of protein N of SARS-CoV Urbani [2]: 0.2; Binding of serum 37 to linear peptides of protein N of SARS-CoV Urbani [2]: 0.9; Binding of serum 62 to linear peptides of protein N of SARS-CoV Urbani [2]: 0.9; Binding of serum London to linear peptides of protein N of SARS-CoV Urbani [2]: 0.7; Binding of serum SARS-green to linear peptides of protein N of SARS-CoV Urbani [2]: 0.4; Binding of serum SARS-yellow to linear peptides of protein N of SARS-CoV Urbani [2]: 0.8; Control Serum Blood-Bank Looped peptides [3]: 0.6; Control serum Blood-bank linear peptides [3]: 0.9; Control serum LUMC linear peptides [3]: 0.8; Control serum LUMC looped peptides [3]: 0.7 |
